Measured values taken from patent publication US11753408B2, “Compounds and method for blocking transmission of malarial parasite” (The United States of America, as represented by the …, priority 2016, dated 2023).

Columns and labels:
[1] = tested on: Stage III-V gametocytes (blood stage P. falciparum parasites); experiment: In vitro drug activity on gametocytes (AlamarBlue viability assay); assay type: cell-based, Plasmodium falciparum; settings: read-out: Gametocyte EC50
How it was run: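 P. falciparum 3D7 stage III–V gametocytes (also HB3, Dd2), enriched by 50 mM N-acetylglucosamine and Percoll gradient, seeded at 20,000/well with compound for 72 h at 37° C, 5% CO2. AlamarBlue then added for 24 h; viability read as fluorescence (Ex 525, Em 598 nm).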

PAMPA permeability = assay type: in vitro ADME
[2] = Microsomal stability (rat); assay type: in vitro ADME; settings: rat microsomes
mTOR = mTOR (Homo sapiens, UniProt P42345); experiment: mTOR activity (no method described); assay type: biochemical
Solubility at pH 7.4 = assay type: physicochemical
[3] = tested on: Asexual parasites of P. falciparum strain 3D7; experiment: In vitro drug activity on asexual parasites (SYBR Green assay); assay type: cell-based, Plasmodium falciparum
How it was run: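 3D7 parasites at 0.5% parasitemia and 2% hematocrit were exposed to drugs (DMSO ≤0.5%) for 72 h under standard culture conditions, in duplicate. After freeze-thaw lysis, SYBR Green I lysis buffer was added for 30 min at room temperature, and fluorescence was read at 490/520 nm.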

Question: Which results are given for Nc1cccc(-c2ccc3ncc4ccc(=O)n(-c5ccc(C(=O)N6CCOCC6)cc5)c4c3c2)c1 [Compound 130]?
Answer: EC50 [1]: 72.2 nM; PAMPA Permeability (PAMPA permeability): 467 ×10⁻⁶ cm/s; Microsomal Stability (rat) T1/2 [2]: >30.0 min; mTOR (mTOR): 0.2021 µM; Sol @ pH 7.4 (Solubility at pH 7.4): 9.2 ug/mL; EC50 [3]: 20.2 nM

Question: Which EC50 [1] does the source give for Nc1cc(Cl)ccc1-c1ccc2ncc3ccc(=O)n(-c4ccc(C(=O)N5CCOCC5)cc4)c3c2c1 [Compound 136] here?
Answer: 733 nM

Question: And the PAMPA Permeability (PAMPA permeability)?
Answer: 1290 ×10⁻⁶ cm/s

Question: And the “Microsomal Stability (rat) T1/2” value [2]?
Answer: 7.8 min

Question: What about the mTOR (mTOR) of the same molecule?
Answer: 3.591 µM

Question: And the “Sol @ pH 7.4” value (Solubility at pH 7.4)?
Answer: 8.6 ug/mL

Question: And the EC50 [3]?
Answer: 94.5 nM

Question: For CN(C)Cc1ccc(-c2ccc3ncc4ccc(=O)n(-c5ccc(C(=O)N6CCN(CCO)CC6)cc5)c4c3c2)cc1 [Compound 162], which EC50 [1] is on record?
Answer: 895 nM

Question: What about the PAMPA Permeability (PAMPA permeability) of the same molecule?
Answer: < 1 ×10⁻⁶ cm/s

Question: What about the “Microsomal Stability (rat) T1/2” value [2] of the same molecule?
Answer: >30.0 min

Question: What about the mTOR (mTOR) of the same molecule?
Answer: 32.08 µM

Question: What about the “Sol @ pH 7.4” value (Solubility at pH 7.4) of the same molecule?
Answer: >83.0 ug/mL

Question: What about the EC50 [3] of the same molecule?
Answer: 368 nM

Question: Which EC50 [1] does the source give for O=C1NCc2cc(-c3ccc4ncc5ccc(=O)n(-c6ccc(C(=O)N7CCOCC7)cc6)c5c4c3)ccc21 [Compound 129] here?
Answer: 680 nM

Question: What about the PAMPA Permeability (PAMPA permeability) of the same molecule?
Answer: 5.4 ×10⁻⁶ cm/s

Question: And the “Microsomal Stability (rat) T1/2” value [2]?
Answer: >30.0 min

Question: And the mTOR (mTOR)?
Answer: 0.8567 µM

Question: What about the “Sol @ pH 7.4” value (Solubility at pH 7.4) of the same molecule?
Answer: 20.3 ug/mL

Question: What about the EC50 [3] of the same molecule?
Answer: 1440 nM

Question: For CN(C)Cc1ccc(-c2ccc3ncc4ccc(=O)n(-c5ccc(C(=O)NC6CC6)cc5)c4c3c2)cc1 [Compound 163], which EC50 [1] is on record?
Answer: 246 nM

Question: And the PAMPA Permeability (PAMPA permeability)?
Answer: 232 ×10⁻⁶ cm/s

Question: What about the “Microsomal Stability (rat) T1/2” value [2] of the same molecule?
Answer: >30.0 min

Question: And the mTOR (mTOR)?
Answer: 6.497 µM

Question: What about the “Sol @ pH 7.4” value (Solubility at pH 7.4) of the same molecule?
Answer: >72.0 ug/mL

Question: What about the EC50 [3] of the same molecule?
Answer: 93.9 nM

Question: For O=C(NC1CCCC1)c1ccc(-n2c(=O)ccc3cnc4ccc(-c5ccc(Cl)cc5)cc4c32)cc1 [Compound 156], which EC50 [1] is on record?
Answer: 1580 nM

Question: And the PAMPA Permeability (PAMPA permeability)?
Answer: < 1 ×10⁻⁶ cm/s

Question: What about the “Microsomal Stability (rat) T1/2” value [2] of the same molecule?
Answer: 5.6 min

Question: What about the mTOR (mTOR) of the same molecule?
Answer: 67.63 µM

Question: And the “Sol @ pH 7.4” value (Solubility at pH 7.4)?
Answer: <1.0 ug/mL

Question: And the EC50 [3]?
Answer: 687 nM

Question: Which results are given for Cc1ccc(C#N)cc1-n1c(=O)n(C)c2cnc3ccc(-c4ccc(Cl)cc4)cc3c21 [Compound 400]?
Answer: EC50 [1]: 294 nM; PAMPA Permeability (PAMPA permeability): 1460 ×10⁻⁶ cm/s; Microsomal Stability (rat) T1/2 [2]: >30.0 min; mTOR (mTOR): 100 µM; Sol @ pH 7.4 (Solubility at pH 7.4): <1.0 ug/mL; EC50 [3]: 165 nM

Question: For O=C(c1ccc(-n2c(=O)ccc3cnc4ccc(-c5ccc(Cl)c(C(=O)N6CCOCC6)c5)cc4c32)cc1)N1CCOCC1 [Compound 147], which EC50 [1] is on record?
Answer: 18300 nM

Question: What about the PAMPA Permeability (PAMPA permeability) of the same molecule?
Answer: 109 ×10⁻⁶ cm/s

Question: What about the “Microsomal Stability (rat) T1/2” value [2] of the same molecule?
Answer: 3.1 min

Question: What about the mTOR (mTOR) of the same molecule?
Answer: 21.22 µM

Question: What about the “Sol @ pH 7.4” value (Solubility at pH 7.4) of the same molecule?
Answer: >90.0 ug/mL

Question: And the EC50 [3]?
Answer: 4810 nM

Question: For O=C(NC1C2CNCC21)c1ccc(-n2c(=O)ccc3cnc4ccc(-c5ccc(Cl)cc5)cc4c32)cc1 (stereo not drawn) [Compound 172], which EC50 [1] is on record?
Answer: 203 nM

Question: And the PAMPA Permeability (PAMPA permeability)?
Answer: 12.3 ×10⁻⁶ cm/s

Question: And the “Microsomal Stability (rat) T1/2” value [2]?
Answer: >30.0 min

Question: And the mTOR (mTOR)?
Answer: 0.9678 µM

Question: And the “Sol @ pH 7.4” value (Solubility at pH 7.4)?
Answer: 2.3 ug/mL

Question: And the EC50 [3]?
Answer: 121 nM

Question: Which EC50 [1] does the source give for COc1cc(-c2ccc3ncc4ccc(=O)n(-c5ccc(C(=O)N6CCOCC6)cc5)c4c3c2)ccc1Cl [Compound 145] here?
Answer: 266 nM

Question: And the PAMPA Permeability (PAMPA permeability)?
Answer: 363 ×10⁻⁶ cm/s

Question: And the “Microsomal Stability (rat) T1/2” value [2]?
Answer: 4.9 min

Question: What about the mTOR (mTOR) of the same molecule?
Answer: 1.214 µM

Question: What about the “Sol @ pH 7.4” value (Solubility at pH 7.4) of the same molecule?
Answer: <1.0 ug/mL

Question: What about the EC50 [3] of the same molecule?
Answer: 60.6 nM

Question: For O=C1Cc2cc(-c3ccc4ncc5ccc(=O)n(-c6ccc(C(=O)N7CCOCC7)cc6)c5c4c3)ccc2N1 [Compound 127], which EC50 [1] is on record?
Answer: 169 nM

Question: What about the PAMPA Permeability (PAMPA permeability) of the same molecule?
Answer: 9.1 ×10⁻⁶ cm/s

Question: What about the “Microsomal Stability (rat) T1/2” value [2] of the same molecule?
Answer: 12.2 min

Question: What about the mTOR (mTOR) of the same molecule?
Answer: 0.3387 µM

Question: What about the “Sol @ pH 7.4” value (Solubility at pH 7.4) of the same molecule?
Answer: 7.3 ug/mL

Question: What about the EC50 [3] of the same molecule?
Answer: 105 nM

Question: What does the source list for O=C(c1ccc(-n2c(=O)ccc3cnc4ccc(-c5ccc(Cl)cc5O)cc4c32)cc1)N1CCOCC1 [Compound 134]?
Answer: EC50 [1]: 256 nM; PAMPA Permeability (PAMPA permeability): 142 ×10⁻⁶ cm/s; Microsomal Stability (rat) T1/2 [2]: 10.5 min; mTOR (mTOR): 2.007 µM; Sol @ pH 7.4 (Solubility at pH 7.4): <1.0 ug/mL; EC50 [3]: 72.7 nM

Question: With N#Cc1cc(NC(=O)c2ccc(-n3c(=O)ccc4cnc5ccc(-c6ccc(Cl)cc6)cc5c43)cc2)ccc1F [Compound 133] as the molecule, how does the EC50 [1] read?
Answer: 10100 nM

Question: What about the PAMPA Permeability (PAMPA permeability) of the same molecule?
Answer: < 5.4 ×10⁻⁶ cm/s

Question: What about the “Microsomal Stability (rat) T1/2” value [2] of the same molecule?
Answer: >30.0 min

Question: And the mTOR (mTOR)?
Answer: inactive

Question: What about the “Sol @ pH 7.4” value (Solubility at pH 7.4) of the same molecule?
Answer: <1.0 ug/mL

Question: And the EC50 [3]?
Answer: 4000 nM

Question: For CN1CCN(C(=O)c2ccc(-n3c(=O)ccc4cnc5ccc(-c6ccc(Cl)cc6)cc5c43)cc2)CC1 [Compound 102], which EC50 [1] is on record?
Answer: 116 nM

Question: And the PAMPA Permeability (PAMPA permeability)?
Answer: 1080 ×10⁻⁶ cm/s

Question: And the “Microsomal Stability (rat) T1/2” value [2]?
Answer: 5 min

Question: What about the mTOR (mTOR) of the same molecule?
Answer: 5.191 µM

Question: What about the “Sol @ pH 7.4” value (Solubility at pH 7.4) of the same molecule?
Answer: 7.5 ug/mL

Question: What about the EC50 [3] of the same molecule?
Answer: 186 nM
